Test results reported in PMC12037410, “Pharmacological targeting of BMAL1 modulates circadian and immune pathways” (Nature Chemical Biology, 2025).
Read-outs that look alike come from different tables or passages of the source. Residues, ends and D or L forms follow the SMILES beside them.

Molecular target: BMAL1 (Homo sapiens, UniProt O00327)
Set-up: PASB domain (residues 338–449); Protein thermal shift (PTS) fragment screen on recombinant human BMAL1(PASB), shift of melting temperature
Details: binder

BMAL1, sequence (O00327 338-449): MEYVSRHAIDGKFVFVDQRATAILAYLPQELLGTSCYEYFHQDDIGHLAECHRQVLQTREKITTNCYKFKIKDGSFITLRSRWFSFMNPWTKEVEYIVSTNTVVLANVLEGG

Compound	Bmal1(PASB) dTmB (dTmB) [°C]	other results
CN1[C@@H]2CC[C@H]1CC(O)C2 (some centres unmarked) [Prestw-Frag-0608, Compound 128]	-0.41	
CC(C)(C)NCC(O)COc1ccccc1C1CCCC1 (centres unmarked) [Prestw-Frag-0674, Compound 468]	-1.95	
O=c1ccc2ccccc2o1 [Prestw-Frag-1000, Compound 307]	-0.26	
Nc1cc2ccccc2oc1=O [Prestw-Frag-1001, Compound 197]	0.68	
Cc1cc(-c2ccccc2)nnc1N [Prestw-Frag-1003, Compound 243]	-0.88	
NC(=O)NS(=O)(=O)c1ccccc1 [Prestw-Frag-1006, Compound 100]	0.09	
CC(=O)Nc1nncs1 [Prestw-Frag-1008, Compound 401]	-0.09	
Nc1nncs1 [Prestw-Frag-1009, Compound 188]	-0.33	
COC(=O)C(c1ccccc1)c1ccccc1 [Prestw-Frag-1013, Compound 353]	-1.32	
c1ccc2c3c([nH]c2c1)CNCC3 [Prestw-Frag-1014, Compound 154]	-0.81	
Cc1cc(C(C)(C)CC(C)(C)C)ccc1O [Prestw-Frag-1016, Compound 351]	0.69	
C[N+](C)(CCO)Cc1ccccc1 [Prestw-Frag-1017, Compound 159]	-0.27	
NC(=O)Cc1cccs1 [Prestw-Frag-1019, Compound 237]	-0.24	
CC1=NN(c2ccccc2)C(=O)C1 [Prestw-Frag-1028, Compound 259]		Bmal1(PASB) dTmB (dTmB, Bmal1(PASB) dTmB): 0.76 °C
NCCCCc1ccccc1 [Prestw-Frag-1031, Compound 371]	-0.34	
COc1ccc(Cc2ccc(OC)cc2)cc1 [Prestw-Frag-1033, Compound 354]	-0.11	
NCc1c(N)ccc(Cl)c1Cl [Prestw-Frag-1039, Compound 337]	0.01	
O=C(O)c1ccccc1O [Prestw-Frag-1045, Compound 55]	-0.68	
CCC(=O)NC1=NC=NC2=NC=NC21 (centres unmarked) [Prestw-Frag-1047, Compound 47]	-0.65	
Nc1nc2ccccc2n1Cc1ccc(F)cc1 [Prestw-Frag-1050, Compound 460]	-1.64	
COc1ccc(CCN2CCC(N)CC2)cc1 [Prestw-Frag-1051, Compound 427]	-0.58	
CC(C)(Oc1ccccc1)C(=O)O [Prestw-Frag-1053, Compound 221]	0.07	

Compound	Bmal1(PASB) dTmB (dTmB) [°C]	other results
Nc1ccc[nH]c1=O [Prestw-Frag-1060, Compound 123]	-2.04	
COc1cc2c(cc1O)CCN[C@H]2C [Prestw-Frag-1063, Compound 388]	-0.57	
COc1ccc(CCN)cc1O [Prestw-Frag-1064, Compound 320]	-0.32	
O=[N+]([O-])c1ccc(CO)cc1 [Prestw-Frag-1071, Compound 105]	-0.41	
CCC1=C(C)CN(C(=O)NCCc2ccccc2)C1=O [Prestw-Frag-1075, Compound 420]	-0.68	
NCCc1ccc(S(N)(=O)=O)cc1 [Prestw-Frag-1076, Compound 338]		Bmal1(PASB) dTmB: -0.53
CC(=O)c1cc(Cl)ccc1O [Prestw-Frag-1083, Compound 280]	-0.22	
O=c1[nH]c2ccccc2o1 [Prestw-Frag-1087, Compound 245]	-0.27	
CC(=O)c1ccc(N2CCNCC2)c(F)c1 [Prestw-Frag-1094, Compound 141]	-0.42	
Cc1ncsc1CCO [Prestw-Frag-1098, Compound 189]	-0.60	
NC(=O)[C@H](N)c1ccccc1 [Prestw-Frag-1099, Compound 271]	-0.22	
OC(c1ccccc1)c1ccc(Cl)cc1 (centres unmarked) [Prestw-Frag-1106, Compound 474]	-2.07	
c1ccc(N2CCNCC2)nc1 [Prestw-Frag-1110, Compound 364]	-0.48	
COC(=O)c1scc(C)c1N [Prestw-Frag-1111, Compound 362]	-0.95	
CCN(Cc1ccccc1)c1ccccc1 [Prestw-Frag-1121, Compound 375]	-1.19	
OC(c1ccccc1)c1ccccc1 [Prestw-Frag-1122, Compound 454]	-1.61	
NCC(CC(=O)O)c1ccccc1 (centres unmarked) [Prestw-Frag-1125, Compound 234]	-0.06	
O=C(O)CCc1ccc(Cl)cc1 [Prestw-Frag-1126, Compound 340]	-0.19	
Cc1oncc1C(N)=O [Prestw-Frag-1128, Compound 133]	-0.10	
Cc1c(O)c2ccccc2oc1=O [Prestw-Frag-1130, Compound 324]	0.05	
O=c1cc(O)c2ccccc2o1 [Prestw-Frag-1131, Compound 301]	0.28	
COc1ccc2ccncc2c1 [Prestw-Frag-1133, Compound 321]	-1.08	

Compound	Bmal1(PASB) dTmB (dTmB) [°C]	other results
Cn1c(=O)[nH]c2nc[nH]c2c1=O [Prestw-Frag-1138, Compound 38]	-0.59	
CNC(C)(C)Cc1ccccc1 [Prestw-Frag-1141, Compound 101]	-0.69	
COc1cc(N)ncn1 [Prestw-Frag-1154, Compound 185]	-0.03	
Oc1cccc2c1CCCC2 [Prestw-Frag-1156, Compound 412]	-1.05	
Cc1nnc(N)s1 [Prestw-Frag-1161, Compound 49]	-1.77	
C(=C\c1ccccc1)/CN1CCNCC1 [Prestw-Frag-1163, Compound 295]	-0.92	
c1ccc2[nH]c(CN3CCCC3)nc2c1 [Prestw-Frag-1164, Compound 180]	-0.18	
COc1ccc(N)nn1 [Prestw-Frag-1167, Compound 140]	-0.58	
OC(Cn1ccnc1)c1ccc(Cl)cc1Cl (centres unmarked) [Prestw-Frag-1182, Compound 411]	-0.85	
COc1cc2ccncc2cc1OC [Prestw-Frag-1183, Compound 290]	-1.26	
Nc1ccc(Cl)nn1 [Prestw-Frag-1184, Compound 263]	-0.26	
CN1CCC[C@H]1c1cccnc1 [Prestw-Frag-1187, Compound 13]	-0.52	
Cc1c(N)cccc1C(F)(F)F [Prestw-Frag-1189, Compound 334]	-0.15	
O=C(O)c1cccnc1Nc1ccccc1 [Prestw-Frag-1191, Compound 63]	0.02	
c1ccc(C(CCN2CCCCC2)c2ccccc2)cc1 [Prestw-Frag-1193, Compound 402]	-2.05	
CC(Oc1ccccc1)C(N)=O (centres unmarked) [Prestw-Frag-1200, Compound 240]	-0.43	
CN1CCN(c2nccc(N)n2)CC1 [Prestw-Frag-1204, Compound 238]	-0.40	
CS(=O)(=O)c1ccc(N)cc1 [Prestw-Frag-1214, Compound 111]	-0.40	
COc1cccc2c1CCCC2=O [Prestw-Frag-1236, Compound 356]	-1.28	
Oc1ccc(-c2ccc(F)cc2F)cc1 [Prestw-Frag-1237, Compound 467]	-0.75	
O=C(O)c1cccc(-c2ccc(F)cc2F)c1 [Prestw-Frag-1238, Compound 368]	-0.92	
O=C(O)c1cc(-c2ccc(F)cc2)ccc1O [Prestw-Frag-1239, Compound 277]	-1.13	

Compound	Bmal1(PASB) dTmB (dTmB) [°C]	other results
O=C(O)c1cc(-c2ccccc2)ccc1O [Prestw-Frag-1240, Compound 74]	-0.48	
CC(C)C1NCCc2c1[nH]c1ccccc21 (centres unmarked) [Prestw-Frag-1264, Compound 134]	-1.09	
NC1=NCCN1 [Prestw-Frag-1268, Compound 246]	-0.47	
COc1cc2c(cc1OC)C(C)N(C)CC2 (centres unmarked) [Prestw-Frag-1273, Compound 218]	-0.29	
C[C@H](N)C(=O)N1CCC[C@H]1C(=O)O [Prestw-Frag-1275, Compound 264] (H-Ala-Pro-OH)	-0.70	
OCc1cc2ccccc2[nH]1 [Prestw-Frag-1297, Compound 419]	0.70	
CCc1cccc2c(CCO)c[nH]c12 [Prestw-Frag-1299, Compound 129]	-0.11	
OCCn1ccnc1 [Prestw-Frag-1303, Compound 120]	0.13	
C[C@H]1NC(=O)NC1=O [Prestw-Frag-1311, Compound 224]	-0.36	
COc1ccc(C(=O)O)cc1N1CCCC1 [Prestw-Frag-1313, Compound 40]	-0.37	
O=C(O)c1ccccc1Nc1cccc(Cl)c1 [Prestw-Frag-1319, Compound 28]	-2.88	
Cc1cccc(Nc2ccccc2C(=O)O)c1 [Prestw-Frag-1320, Compound 17]	-0.74	
Nc1cccc(C(F)(F)F)c1 [Prestw-Frag-1322, Compound 231]	0.29	
Fc1ccc(C(c2ccc(F)cc2)N2CCNCC2)cc1 [Prestw-Frag-1323, Compound 452]	-2.55	
CN1CCN(C(c2ccccc2)c2ccccc2)CC1 [Prestw-Frag-1325, Compound 405]	-0.51	
COc1ccccc1OCCCO [Prestw-Frag-1335, Compound 370]	4.16	
OCC(O)COc1ccccc1 (centres unmarked) [Prestw-Frag-1337, Compound 306]	0.63	
COc1ccccc1OCCO [Prestw-Frag-1338, Compound 363]	0.76	
CCC(C(=O)OCCN(CC)CC)c1ccccc1 (centres unmarked) [Prestw-Frag-1343, Compound 396]	-1.01	
OC(c1ccc(Cl)cc1)c1ccccn1 (centres unmarked) [Prestw-Frag-1346, Compound 414]	-1.29	
